# In ChEMBL document CHEMBL3217523, “Design and syntheses of some iminosugar derivatives as potential immunosuppressants” (Medchemcomm, 2011):
# Calls of active or inactive are those of the source. No cut-off for these calls is given here.
# Tests used:
# [1] = (§1) Antiproliferative activity against Con A-induced BALB/c mouse splenocytes at 30 uM after 48 hrs by CCK-8 method relative to control; type: functional; conditions: Splenocyte
# [2] = Cytotoxicity against BALB/c mouse splenocytes up to 110 uM after 48 hrs by CCK-8 method; type: cell-based; conditions: splenocyte
# [3] = Antiproliferative activity against Con A-induced BALB/c mouse splenocytes after 48 hrs by CCK-8 method relative to control; type: functional, cell-based; conditions: Splenocyte
# Splenocyte = test: as §1; type: functional
Structure (SMILES),inhibition at 30 µM [1],further results
OCCC[C@H]1N[C@@H](CO)[C@H](O)[C@H](O)[C@H]1O,19.3%,–
CCCCCCCCCN1[C@H](CO)[C@H](O)[C@H](O)[C@@H](O)[C@H]1CCl,54.1%,Activity [2]: Non-toxic; IC50 [3]: 22 µM
O=C(O)CC[C@H]1N[C@@H](CO)[C@H](O)[C@H](O)[C@H]1O,6.4%,–
N#CC[C@H]1N[C@H](CO)[C@H](O)[C@H](O)[C@H]1O,27.9%,–
O=C(O)[C@H]1N[C@@H](CO)[C@H](O)[C@H](O)[C@H]1O,–,inhibition (Splenocyte): inactive
CCCCCCN1[C@H](CO)[C@H](O)[C@H](O)[C@@H](O)[C@H]1CCl,38.9%,–
OC[C@H]1N[C@H](CCl)[C@H](O)[C@@H](O)[C@H]1O,20.8%,–
OC[C@H]1C[C@@H](O)[C@@H](O)[C@@H](CO)N1,22.3%,–
OC[C@@H]1N[C@H](CO)[C@H](O)[C@@H](O)[C@H]1O,9.7%,–
OCCC[C@H]1N[C@H](CO)[C@H](O)[C@H](O)[C@H]1O,14.6%,–
CCCCCCN1[C@H](CO)[C@H](O)C(O)[C@@H](O)[C@H]1CO (stereo not given in full),25.5%,–
OC[C@H]1N[C@H](CO)[C@H](O)C(O)[C@H]1O (stereo not given in full),7.8%,–
CCCCCCCCCN1[C@H](CCl)[C@H](O)[C@@H](O)[C@@H](O)[C@@H]1CO,43.6%,Activity [2]: Non-toxic; IC50 [3]: 45 µM
O=C(O)CC[C@H]1N[C@H](CO)[C@H](O)[C@H](O)[C@H]1O,4.9%,–
O=C(O)[C@H]1N[C@H](CO)[C@H](O)[C@H](O)[C@H]1O,7.2%,–
O=C(O)[C@@H]1N[C@@H](CO)[C@H](O)[C@H](O)[C@H]1O,21.2%,–
